Measurements as given in a melting point compilation (Tetko et al.; mined from patent text by program, amines drawn as free bases though some values may be those of a salt).

Point of comparison: Cc1nccc(N2CCN(C(=O)c3ccccc3)CC2)n1, melting point 147 °C. Against it:
- CC(C)[C@H](NC1CCCCC1)C(=O)NCCCC(c1ccc(F)cc1)c1ccc(F)cc1 — lower, 49 to 53 °C
- COc1cc2c(cc1-c1cccnc1)-c1c(C3NCCO3)c3c(n1CC2)C(=O)N(C(C)(C)C)CCC3 (stereo not given) — higher, 218 to 220 °C
- CCC(CC)c1ccc(N(Cc2ccc(-c3csc(COc4cncc(C(=O)O)c4)n3)cc2)C(C)C)cc1 — higher, 202 °C
- CC(C)(C)NS(=O)(=O)c1cnc(-c2cn(-c3cc(-c4ccc(C(F)(F)F)cc4)cc(C(F)(F)F)n3)cn2)s1 — higher, 252 °C
- COc1cc2c(=O)c(Cc3cccnc3)cn3c4ccc(Br)cc4c(c1)c23 — higher, 150 to 151 °C
- Cc1ccccc1S(=O)(=O)NC(=O)n1sc(Cl)cc1=O — lower, 82 to 84 °C
- CC(NC(=O)OC(C)(C)C)C(=O)NC1CCN(c2c(F)cc3c(=O)c(C(=O)O)cn(C4CC4)c3c2F)C1 (stereo not given) — higher, 185 to 187 °C
- CCCCC(=O)OC1C=CC(OC(=O)CCCC)O1 (stereo not given) — lower, 30 to 35 °C
- COC(=O)c1cc(-c2ccncc2)cc2c1OC(c1ccccc1)(c1ccccc1)O2 — higher, 151 to 152 °C
- CCOC(=O)CCn1nc(-c2cc(C(C)(C)C)c(O)c(C(C)(C)C)c2)c2cccnc21 — lower, 105 to 106 °C
- CCC1(O)CCC2C3=C(CCC21C)c1ccc(OC)cc1CC3 (stereo not given) — lower, 105 to 120 °C
- Cn1nc(Cl)c(C(=O)OC2COC2)c1S(N)(=O)=O — not separable, 145 to 147 °C
- CCOCCNC(=O)OCCCc1ccc(OCCOC)cc1Oc1ncc(C(F)(F)F)cc1Cl — lower, 66 to 68 °C
- COc1ccc(CCNCC(O)c2ccc(C)s2)cc1OC (stereo not given) — lower, 108 to 110 °C
- COC1CCN(c2c(Cl)cc3c4c(cccc24)C(=O)N(O)C3=O)C1 (stereo not given) — lower, 136 to 142 °C
- NS(=O)(=O)c1ccc(-c2cnn(CC(F)=C(F)F)c(=O)c2-c2ccc(F)cc2)cc1 — higher, 173 to 175 °C
- CCOC(=O)c1ccc(-c2[nH]nc3c2C(=O)c2c(NC(=O)NN4CCN(C)CC4)cccc2-3)s1 — higher, 249 °C
- CCOC(=O)CCCCCN1CCC[C@@H](NCc2ccccc2OC)[C@H]1c1ccccc1 (racemic) — lower, 80 to 95 °C
- COc1cc(C(=O)O)ccc1Cc1cn(C)c2ccc(CC(C)NC(=O)N(C)C)cc12 (stereo not given) — higher, 162 to 163 °C
- O=C(NC(=O)N(SN1CCOCC1)c1ccc(Oc2ccc(C(F)(F)F)cc2Cl)cc1F)c1c(F)cccc1F — lower, 77 to 80 °C
- CC(C)(Oc1ccc(COCc2ccc3cn(-c4ccc(C(F)(F)F)cc4)nc3c2)cc1)C(=O)O — lower, 129 to 131 °C
- OC[C@@H]1CCc2ccc3ncccc3c2O1 — lower, 128 °C
- Cc1c(C)n(CC2CC2C)c2c(OCc3ccc(F)cc3)nncc12 (stereo not given) — lower, 114 to 115 °C
- CCN(N)c1cnn(-c2cccc(C(F)(F)F)c2)c(=O)c1 — lower, 108 to 110 °C
- CC(=O)OC1Cc2ccccc2N(C(N)=O)c2ccccc21 (stereo not given) — higher, 185 °C
- COc1cc2c(cc1OC)CN(CCc1ccc(NC(=O)c3cccc4c(=O)c5cccc(OC)c5[nH]c34)cc1)C2 — higher, 215 to 225 °C
- COc1ccc(C(=O)N2CCC(CCN3CCC(Nc4nc5ccccc5[nH]4)CC3)(c3ccccc3)C2)c(OC)c1OC (stereo not given) — lower, 112 to 119 °C
- CN1CCN(c2c(F)c(N)c3c(=O)c(C(=O)O)cn(C4CC4)c3c2F)CC1 — higher, 247 to 248 °C
- COc1cc(C(=O)NS(=O)(=O)c2ccccc2C)ccc1Cn1cc(/C=C/C(=O)N2CCCC2)c2ccc(/C=C/C(=O)N3CCCC3)cc21 — higher, 297 to 299 °C
- Cc1nc(-c2ccc3c(c2)c2cc(-c4ccc(Cl)cc4Cl)c(=O)n(C)c2n3C)co1 — higher, 222 to 223 °C
- CCCn1cnc2c1c(=O)n(CCCCCC(C)=O)c(=O)n2C — lower, 69 to 70 °C
- CC(C)N(Cc1nc(-c2ccccc2)no1)C(=O)COc1ccc(C(=O)O)cc1 — higher, 211 to 214 °C
- c1cc2c3c(cccc3c1)NN=N2 — lower, 80 to 81 °C
- CCOc1nn(Cc2ccc(OCCn3ncc4ccccc4c3=O)cc2)cc1CCC(=O)O — higher, 152 to 153 °C
